Active and inactive are the calls of the source.
Key:
Large T antigen = Large T antigen (Simian virus 40, UniProt P03070); assay type: functional, Betapolyomavirus macacae;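 further: Confirmatory-stage PubChem screen for compounds that inhibit SV40 T antigen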
[1] = target: Glucose-6-phosphate 1-dehydrogenase (Homo sapiens, UniProt P11413); experiment: human G6PD enzyme inhibitors, dose response, selectivity assay for P. falciparum G6PD inhibitor project, biochemical, fluorescence (AID 504792); assay type: functional
[2] = target: T1, RNA-binding protein pos-1 (Caenorhabditis elegans, UniProt G5EF15); experiment: inhibitors of POS-1/mex-3 RNA binding, dose response, biochemical, fluorescence polarization (AID 1964);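 further: purified POS-1 fused to maltose binding protein made in E. coli; potency of compounds blocking POS-1 binding to fluorescent RNA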
T1 sequence (G5EF15 whole entry): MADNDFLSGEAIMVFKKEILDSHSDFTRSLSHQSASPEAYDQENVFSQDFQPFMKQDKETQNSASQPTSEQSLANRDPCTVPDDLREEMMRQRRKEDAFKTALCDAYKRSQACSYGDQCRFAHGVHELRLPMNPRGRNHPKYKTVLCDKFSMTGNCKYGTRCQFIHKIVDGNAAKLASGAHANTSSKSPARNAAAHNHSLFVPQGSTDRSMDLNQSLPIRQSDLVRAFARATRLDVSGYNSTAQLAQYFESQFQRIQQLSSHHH

[3] = target: T2, Zinc finger protein mex-5 (Caenorhabditis elegans, UniProt Q9XUB2); experiment: MEX-5/TCR-2 RNA interaction inhibitors, dose response, biochemical, C. elegans, fluorescence polarization (AID 1960)
T2 sequence (Q9XUB2 whole entry): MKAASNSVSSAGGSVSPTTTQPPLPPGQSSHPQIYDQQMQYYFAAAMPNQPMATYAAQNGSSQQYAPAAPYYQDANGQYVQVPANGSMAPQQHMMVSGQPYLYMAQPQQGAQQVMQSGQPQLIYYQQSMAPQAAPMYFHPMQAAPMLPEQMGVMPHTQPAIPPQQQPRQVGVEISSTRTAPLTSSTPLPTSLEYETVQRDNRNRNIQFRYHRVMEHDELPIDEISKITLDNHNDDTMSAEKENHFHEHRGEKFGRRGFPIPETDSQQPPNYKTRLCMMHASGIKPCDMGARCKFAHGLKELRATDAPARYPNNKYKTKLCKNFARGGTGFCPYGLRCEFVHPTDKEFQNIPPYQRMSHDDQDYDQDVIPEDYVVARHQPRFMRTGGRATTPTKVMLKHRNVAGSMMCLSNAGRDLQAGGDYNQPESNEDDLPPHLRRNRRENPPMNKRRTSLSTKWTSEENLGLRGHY

[4] = target: DNA dC->dU-editing enzyme APOBEC-3A (Homo sapiens, UniProt P31941); experiment: Dose Response confirmation of small molecule APOBEC3A DNA Deaminase Inhibitors via a fluorescence-based single-stranded DNA deaminase assay. [Related pubchem assays (depositor defined):AID493011, AID493024]; assay type: functional
[5] = target: DNA dC->dU-editing enzyme APOBEC-3G (Homo sapiens, UniProt Q9HC16); assay type: functional;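 further: Dose-response counterscreen measuring inhibition of APOBEC3G DNA deaminase activity, run while confirming APOBEC3A inhibitors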
[6] = target: UDP-galactopyranose mutase (Mycobacterium tuberculosis, UniProt P9WIQ1); experiment: Inhibitors of Mycobacterium tuberculosis UDP-galactopyranose mutase (UGM) enzyme Measured in Biochemical System Using Plate Reader - 2105-02_Inhibitor_Dose_CherryPick_Activity. [Related pubchem assays (depositor defined):AID504439]
Caspase-3 = target: T3, Caspase-3 (Homo sapiens, UniProt P42574); assay type: functional;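 further: Dose-response selectivity test against caspase-3 for candidate inhibitors of sentrin-specific proteases (SENPs)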
T3 sequence (P42574 whole entry): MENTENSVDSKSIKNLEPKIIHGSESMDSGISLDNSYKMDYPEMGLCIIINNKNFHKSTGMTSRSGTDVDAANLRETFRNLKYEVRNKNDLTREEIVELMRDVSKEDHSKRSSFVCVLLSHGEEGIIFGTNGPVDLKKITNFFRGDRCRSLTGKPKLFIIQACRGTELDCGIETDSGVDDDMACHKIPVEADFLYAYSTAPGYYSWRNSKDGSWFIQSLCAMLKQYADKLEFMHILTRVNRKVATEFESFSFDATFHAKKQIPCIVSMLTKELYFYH

[7] = target: T4, Sentrin-specific protease 7 (Homo sapiens, UniProt Q9BQF6); assay type: functional;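 further: Luminescence-based dose-response confirmation of ultra-high-throughput screening hits, measuring inhibition of SENP7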
T4 sequence (Q9BQF6 whole entry): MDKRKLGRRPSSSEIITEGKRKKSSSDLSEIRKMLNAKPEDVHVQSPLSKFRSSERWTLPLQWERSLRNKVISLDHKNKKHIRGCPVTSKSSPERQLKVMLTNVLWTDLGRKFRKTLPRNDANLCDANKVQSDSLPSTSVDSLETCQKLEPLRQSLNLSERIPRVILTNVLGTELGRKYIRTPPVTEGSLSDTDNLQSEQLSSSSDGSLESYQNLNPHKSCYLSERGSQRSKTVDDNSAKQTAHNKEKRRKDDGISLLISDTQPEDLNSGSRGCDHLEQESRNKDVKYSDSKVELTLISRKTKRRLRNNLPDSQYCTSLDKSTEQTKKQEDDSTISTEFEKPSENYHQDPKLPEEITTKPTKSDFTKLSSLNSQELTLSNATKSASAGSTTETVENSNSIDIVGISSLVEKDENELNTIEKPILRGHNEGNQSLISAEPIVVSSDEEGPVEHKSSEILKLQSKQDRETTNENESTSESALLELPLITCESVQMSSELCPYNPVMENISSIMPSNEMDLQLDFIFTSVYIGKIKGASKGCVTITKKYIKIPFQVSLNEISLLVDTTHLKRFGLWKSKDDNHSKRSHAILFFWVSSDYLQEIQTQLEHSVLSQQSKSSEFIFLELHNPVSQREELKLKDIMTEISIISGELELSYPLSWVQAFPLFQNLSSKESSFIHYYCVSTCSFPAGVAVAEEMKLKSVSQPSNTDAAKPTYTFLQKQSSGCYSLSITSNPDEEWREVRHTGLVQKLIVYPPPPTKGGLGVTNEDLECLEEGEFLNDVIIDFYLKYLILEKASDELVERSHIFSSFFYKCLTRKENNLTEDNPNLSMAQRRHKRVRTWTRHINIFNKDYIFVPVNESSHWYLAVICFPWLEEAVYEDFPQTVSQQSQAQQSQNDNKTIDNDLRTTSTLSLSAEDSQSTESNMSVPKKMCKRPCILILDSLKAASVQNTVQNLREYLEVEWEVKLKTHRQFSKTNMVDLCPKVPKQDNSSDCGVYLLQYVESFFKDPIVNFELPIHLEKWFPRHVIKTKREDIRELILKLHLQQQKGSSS

[8] = target: T5, Sentrin-specific protease 6 (Homo sapiens, UniProt Q9GZR1); assay type: functional;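 further: Luminescence-based dose-response confirmatory assay of SENP6 inhibition, following up an ultra-high-throughput screen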
T5 sequence (Q9GZR1 whole entry): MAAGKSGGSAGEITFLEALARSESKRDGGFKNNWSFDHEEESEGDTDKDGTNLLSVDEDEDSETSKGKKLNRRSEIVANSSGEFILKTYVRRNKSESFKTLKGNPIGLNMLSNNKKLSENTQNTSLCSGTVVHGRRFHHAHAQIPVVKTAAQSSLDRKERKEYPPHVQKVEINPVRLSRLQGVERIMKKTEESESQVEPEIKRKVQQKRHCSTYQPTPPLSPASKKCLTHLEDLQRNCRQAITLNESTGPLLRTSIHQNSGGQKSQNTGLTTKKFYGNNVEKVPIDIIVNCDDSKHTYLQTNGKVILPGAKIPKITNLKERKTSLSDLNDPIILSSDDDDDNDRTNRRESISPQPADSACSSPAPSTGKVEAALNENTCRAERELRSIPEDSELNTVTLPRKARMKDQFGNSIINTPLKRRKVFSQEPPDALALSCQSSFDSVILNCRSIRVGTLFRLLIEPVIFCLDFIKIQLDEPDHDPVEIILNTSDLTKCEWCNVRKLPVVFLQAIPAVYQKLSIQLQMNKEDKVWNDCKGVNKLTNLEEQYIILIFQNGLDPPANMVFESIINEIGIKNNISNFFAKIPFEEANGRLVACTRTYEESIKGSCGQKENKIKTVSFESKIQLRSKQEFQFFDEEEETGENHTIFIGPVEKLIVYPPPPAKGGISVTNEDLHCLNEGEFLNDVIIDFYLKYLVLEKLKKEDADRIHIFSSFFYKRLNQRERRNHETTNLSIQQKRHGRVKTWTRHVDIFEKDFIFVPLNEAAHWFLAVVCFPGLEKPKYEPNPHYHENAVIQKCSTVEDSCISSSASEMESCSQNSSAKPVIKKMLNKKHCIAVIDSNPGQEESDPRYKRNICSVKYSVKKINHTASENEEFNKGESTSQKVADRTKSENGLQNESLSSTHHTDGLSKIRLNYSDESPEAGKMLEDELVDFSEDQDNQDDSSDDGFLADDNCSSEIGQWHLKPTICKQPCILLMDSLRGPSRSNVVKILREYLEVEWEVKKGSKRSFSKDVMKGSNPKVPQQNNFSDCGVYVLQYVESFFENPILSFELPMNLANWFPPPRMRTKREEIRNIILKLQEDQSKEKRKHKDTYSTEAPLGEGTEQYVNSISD

[9] = target: T6, Sentrin-specific protease 8 (Homo sapiens, UniProt Q96LD8); assay type: functional;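 further: luminescence read-out of SENP8 inhibition, dose-response confirmation following an ultra-high-throughput screen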
T6 sequence (Q96LD8 whole entry): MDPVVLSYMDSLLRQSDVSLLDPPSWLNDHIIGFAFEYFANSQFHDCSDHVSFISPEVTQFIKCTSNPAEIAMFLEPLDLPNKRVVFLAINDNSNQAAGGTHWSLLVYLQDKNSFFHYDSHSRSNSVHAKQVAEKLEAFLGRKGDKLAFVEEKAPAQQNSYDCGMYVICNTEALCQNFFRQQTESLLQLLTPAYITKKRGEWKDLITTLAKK

HEK293 [10] = experiment: NOD1 signaling inhibitors, primary screen, cell-based, luminescence, uHTS (AID 1578); assay type: functional; conditions: Homo sapiens
HEK293 [11] = experiment: cells; assay type: functional, cell-based; conditions: Homo sapiens
HEK293 [12] = experiment: cells; assay type: functional, cell-based; conditions: Homo sapiens; remark: listed apart in the source
[13] = target: Nucleotide-binding oligomerization domain-containing protein 2 (Homo sapiens, UniProt Q9HC29); experiment: NOD2 signaling inhibitors, cell-based, luminescence, uHTS, HEK293 (AID 1566); assay type: functional
HEK293 [14] = experiment: NOD2 signaling inhibitors in MDP-stimulated cells, cell-based, uHTS, luminescence (AID 2001); assay type: functional; conditions: Homo sapiens
HEK293 [15] = experiment: cells; assay type: functional, cell-based; conditions: Homo sapiens; remark: listed apart in the source
Cysteine protease ATG4B = Cysteine protease ATG4B (Homo sapiens, UniProt Q9Y4P1); assay type: functional;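 further: Fluorescence-based dose-response confirmation assay measuring inhibition of ATG4B activity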
Phospholipase A2 = Phospholipase A2 (Homo sapiens, UniProt P04054); assay type: functional;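 further: confirmatory dose-response counterscreen on phospholipase A2, testing hits that came from an ultra-high-throughput screen for ATG4B inhibitors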
Chain of Phospholipase A2 (P04054 whole entry): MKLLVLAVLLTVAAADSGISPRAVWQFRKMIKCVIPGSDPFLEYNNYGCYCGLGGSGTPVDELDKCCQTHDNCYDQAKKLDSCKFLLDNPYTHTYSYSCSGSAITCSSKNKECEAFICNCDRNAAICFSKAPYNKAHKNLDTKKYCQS

Chain of Large T antigen (P03070 whole entry): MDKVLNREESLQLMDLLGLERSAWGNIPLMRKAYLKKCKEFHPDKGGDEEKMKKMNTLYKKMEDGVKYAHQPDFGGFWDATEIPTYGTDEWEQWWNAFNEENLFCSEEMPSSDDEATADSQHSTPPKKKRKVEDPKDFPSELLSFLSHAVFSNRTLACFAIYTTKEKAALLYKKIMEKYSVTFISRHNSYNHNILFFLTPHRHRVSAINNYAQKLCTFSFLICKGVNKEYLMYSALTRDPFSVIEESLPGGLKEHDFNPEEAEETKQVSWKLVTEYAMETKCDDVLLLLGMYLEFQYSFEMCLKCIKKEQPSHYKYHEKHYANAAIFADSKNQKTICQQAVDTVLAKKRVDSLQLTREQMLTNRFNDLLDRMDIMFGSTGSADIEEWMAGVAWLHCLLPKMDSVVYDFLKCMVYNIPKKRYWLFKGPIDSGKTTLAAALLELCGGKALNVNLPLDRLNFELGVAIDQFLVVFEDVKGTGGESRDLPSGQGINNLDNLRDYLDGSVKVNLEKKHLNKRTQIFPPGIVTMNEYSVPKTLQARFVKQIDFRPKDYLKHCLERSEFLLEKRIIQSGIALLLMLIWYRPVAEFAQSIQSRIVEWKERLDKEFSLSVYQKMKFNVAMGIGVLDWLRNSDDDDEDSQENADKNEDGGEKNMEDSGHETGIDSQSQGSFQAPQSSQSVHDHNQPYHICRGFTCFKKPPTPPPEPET
Chain of Glucose-6-phosphate 1-dehydrogenase (P11413 whole entry, the tested form may be a part): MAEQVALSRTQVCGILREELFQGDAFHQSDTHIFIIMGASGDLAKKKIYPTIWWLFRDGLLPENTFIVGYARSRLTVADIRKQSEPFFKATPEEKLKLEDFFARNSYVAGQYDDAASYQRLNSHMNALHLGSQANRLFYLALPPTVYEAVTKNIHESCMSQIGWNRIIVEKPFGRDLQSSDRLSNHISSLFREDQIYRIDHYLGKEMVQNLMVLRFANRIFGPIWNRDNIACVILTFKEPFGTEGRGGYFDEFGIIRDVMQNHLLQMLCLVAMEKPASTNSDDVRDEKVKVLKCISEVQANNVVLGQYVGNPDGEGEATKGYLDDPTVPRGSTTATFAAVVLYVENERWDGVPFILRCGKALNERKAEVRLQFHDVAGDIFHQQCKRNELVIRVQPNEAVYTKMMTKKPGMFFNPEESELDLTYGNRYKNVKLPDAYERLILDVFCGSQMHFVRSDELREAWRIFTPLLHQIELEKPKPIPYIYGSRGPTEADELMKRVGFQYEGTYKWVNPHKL
Chain of DNA dC->dU-editing enzyme APOBEC-3A (P31941 whole entry): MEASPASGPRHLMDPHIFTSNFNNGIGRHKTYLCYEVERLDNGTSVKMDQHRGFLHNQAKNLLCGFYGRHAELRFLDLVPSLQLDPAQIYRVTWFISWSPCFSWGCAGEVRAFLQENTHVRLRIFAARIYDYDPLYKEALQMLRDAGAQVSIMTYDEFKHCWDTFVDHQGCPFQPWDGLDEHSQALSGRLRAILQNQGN
Chain of Nucleotide-binding oligomerization domain-containing protein 2 (Q9HC29 whole entry, the tested form may be a part): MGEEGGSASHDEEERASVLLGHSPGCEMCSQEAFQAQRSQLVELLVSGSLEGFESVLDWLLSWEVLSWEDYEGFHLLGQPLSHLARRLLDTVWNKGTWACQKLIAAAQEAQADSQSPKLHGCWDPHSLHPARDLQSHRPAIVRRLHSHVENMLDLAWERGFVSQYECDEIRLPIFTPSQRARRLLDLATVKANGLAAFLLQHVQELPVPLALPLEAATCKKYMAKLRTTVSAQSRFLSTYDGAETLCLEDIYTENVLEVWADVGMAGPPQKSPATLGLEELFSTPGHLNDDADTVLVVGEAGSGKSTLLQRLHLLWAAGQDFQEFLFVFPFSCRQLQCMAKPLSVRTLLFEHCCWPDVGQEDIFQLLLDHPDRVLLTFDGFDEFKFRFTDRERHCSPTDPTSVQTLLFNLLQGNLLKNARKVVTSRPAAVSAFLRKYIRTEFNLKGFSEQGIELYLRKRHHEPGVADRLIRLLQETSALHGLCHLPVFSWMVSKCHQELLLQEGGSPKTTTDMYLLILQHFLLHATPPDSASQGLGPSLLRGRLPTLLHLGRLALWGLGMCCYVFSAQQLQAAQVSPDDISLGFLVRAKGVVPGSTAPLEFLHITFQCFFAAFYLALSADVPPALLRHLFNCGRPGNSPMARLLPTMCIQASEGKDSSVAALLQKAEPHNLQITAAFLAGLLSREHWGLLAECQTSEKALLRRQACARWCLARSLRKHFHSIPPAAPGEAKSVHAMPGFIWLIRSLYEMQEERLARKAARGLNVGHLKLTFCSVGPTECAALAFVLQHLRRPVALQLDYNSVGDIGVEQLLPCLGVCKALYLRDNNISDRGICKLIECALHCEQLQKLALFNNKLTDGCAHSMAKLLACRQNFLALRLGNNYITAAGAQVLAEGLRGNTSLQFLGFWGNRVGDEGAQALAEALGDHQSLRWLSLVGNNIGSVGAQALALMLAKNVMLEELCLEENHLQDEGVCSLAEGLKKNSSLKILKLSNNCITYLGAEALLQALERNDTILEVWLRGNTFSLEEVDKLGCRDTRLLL
Chain of DNA dC->dU-editing enzyme APOBEC-3G (Q9HC16 whole entry): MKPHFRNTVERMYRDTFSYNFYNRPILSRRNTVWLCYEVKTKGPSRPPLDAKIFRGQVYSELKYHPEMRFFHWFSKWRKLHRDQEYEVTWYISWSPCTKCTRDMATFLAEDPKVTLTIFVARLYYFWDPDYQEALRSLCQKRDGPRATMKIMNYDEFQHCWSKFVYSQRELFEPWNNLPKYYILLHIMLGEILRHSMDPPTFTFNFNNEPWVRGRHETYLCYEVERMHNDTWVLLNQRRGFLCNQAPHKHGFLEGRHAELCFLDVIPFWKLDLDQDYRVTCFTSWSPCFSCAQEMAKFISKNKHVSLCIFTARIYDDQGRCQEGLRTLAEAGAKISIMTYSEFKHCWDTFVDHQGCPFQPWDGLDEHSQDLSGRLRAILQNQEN
Chain of UDP-galactopyranose mutase (P9WIQ1 whole entry): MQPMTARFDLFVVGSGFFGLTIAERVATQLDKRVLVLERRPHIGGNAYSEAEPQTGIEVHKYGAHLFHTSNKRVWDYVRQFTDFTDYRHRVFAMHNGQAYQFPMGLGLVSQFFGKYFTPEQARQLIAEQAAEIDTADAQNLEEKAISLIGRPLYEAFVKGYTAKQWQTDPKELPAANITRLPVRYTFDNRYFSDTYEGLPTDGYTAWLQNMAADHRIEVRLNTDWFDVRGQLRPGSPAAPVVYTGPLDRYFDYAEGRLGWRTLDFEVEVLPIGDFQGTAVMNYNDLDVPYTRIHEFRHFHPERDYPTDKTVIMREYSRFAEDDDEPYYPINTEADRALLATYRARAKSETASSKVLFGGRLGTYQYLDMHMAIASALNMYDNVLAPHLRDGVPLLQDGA
Chain of Cysteine protease ATG4B (Q9Y4P1 whole entry): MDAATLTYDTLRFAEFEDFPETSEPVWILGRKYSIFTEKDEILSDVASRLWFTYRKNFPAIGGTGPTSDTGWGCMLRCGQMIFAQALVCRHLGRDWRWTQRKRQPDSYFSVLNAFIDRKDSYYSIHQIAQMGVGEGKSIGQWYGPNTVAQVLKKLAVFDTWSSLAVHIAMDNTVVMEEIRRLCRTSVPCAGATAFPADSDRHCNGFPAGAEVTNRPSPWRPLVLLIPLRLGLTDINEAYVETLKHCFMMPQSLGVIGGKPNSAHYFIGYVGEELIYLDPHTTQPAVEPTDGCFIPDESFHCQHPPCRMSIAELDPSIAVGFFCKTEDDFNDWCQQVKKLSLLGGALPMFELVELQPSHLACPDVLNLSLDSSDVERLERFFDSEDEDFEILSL

c1cncc(CNc2ccc3c(c2)OCO3)c1
active: IC50 (Large T antigen) 25.4 µM
inactive: IC50 [1] > 80 µM

NC(=O)C[n+]1cccc2ccccc21
active: EC50 [2] 29.7 µM | EC50 [3] 22.3 µM | IC50 [4] 2.69 µM | IC50 [5] 2.52 µM | AC50 [6] 311 µM

CC1=NN(C(N)=S)C(=O)C1N=Nc1ccc(Cl)cc1 (stereo not drawn)
active: IC50 (Caspase-3) 1.59 µM | IC50 [7] 2.07 µM | IC50 [8] 2.96 µM | IC50 [9] 2.58 µM

c1csc(-c2csc(-c3cccs3)n2)c1
active: IC50 (Caspase-3) 25.3 µM | IC50 [7] 5.92 µM | IC50 [8] 20.1 µM | IC50 [9] 28.2 µM

CC(=O)Nc1ccc(C(=O)Nc2nc(-c3cc(C)n(Cc4ccccc4)c3C)cs2)cc1
active: IC50 (Cysteine protease ATG4B) 10.2 µM | IC50 (Phospholipase A2) 5.37 µM
inactive: EC50 (HEK293 [10]) > 20 µM | IC50 (HEK293 [11]) > 20 µM | IC50 (HEK293 [12]) > 20 µM | EC50 [13] > 20 µM | IC50 (HEK293 [14]) > 20 µM | IC50 (HEK293 [15]) > 20 µM
